Laboratory results from paper PMC3852541, “Construction of an in vitro bypassed pyruvate decarboxylation pathway using thermostable enzyme modules and its application to N-acetylglutamate production” (Microbial Cell Factories, 2013).

Molecular target: T1, TtADDH (Thermus thermophilus, UniProt Q53WH9)
T1 construct: gene TTHB247; full-length from RIKEN T. thermophilus HB8 expression plasmid set; E. coli Rosetta2 (DE3), heat-treated lysate (70 C, 30 min)
Assay: NAD+ reduction at […] nm; HPLC of products
Format: biochemical
Conditions: 0.2 mM NAD+, 0.2 mM CoA, 0.2 mM acetaldehyde; 50 mM HEPES-NaOH pH 7.0, 100 mM KCl, 10 mM MgCl2, 50 C

T1 sequence (Q53WH9 whole entry): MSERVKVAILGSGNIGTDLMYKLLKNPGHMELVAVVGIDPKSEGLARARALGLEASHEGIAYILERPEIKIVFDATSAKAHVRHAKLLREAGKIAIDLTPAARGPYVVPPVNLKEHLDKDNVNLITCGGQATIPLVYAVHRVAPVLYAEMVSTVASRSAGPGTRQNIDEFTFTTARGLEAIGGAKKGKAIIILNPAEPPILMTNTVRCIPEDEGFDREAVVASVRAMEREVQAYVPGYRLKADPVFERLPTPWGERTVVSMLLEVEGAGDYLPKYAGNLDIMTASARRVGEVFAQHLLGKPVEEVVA

CC=O [acetaldehyde]
NAD+ reduction at 340 nm; HPLC of products: TtADDH could catalyze the oxidation of acetaldehyde in both CoA-dependent (acetyl-CoA-forming) and CoA-independent
